The text below walks through data of ChEMBL document CHEMBL5727557, “SHP2 inhibitors and uses thereof” (2020).

For this test, the target named is T1, Tyrosine-protein phosphatase non-receptor type 11 (Homo sapiens, UniProt Q06124).
T1 sequence (Q06124 whole entry): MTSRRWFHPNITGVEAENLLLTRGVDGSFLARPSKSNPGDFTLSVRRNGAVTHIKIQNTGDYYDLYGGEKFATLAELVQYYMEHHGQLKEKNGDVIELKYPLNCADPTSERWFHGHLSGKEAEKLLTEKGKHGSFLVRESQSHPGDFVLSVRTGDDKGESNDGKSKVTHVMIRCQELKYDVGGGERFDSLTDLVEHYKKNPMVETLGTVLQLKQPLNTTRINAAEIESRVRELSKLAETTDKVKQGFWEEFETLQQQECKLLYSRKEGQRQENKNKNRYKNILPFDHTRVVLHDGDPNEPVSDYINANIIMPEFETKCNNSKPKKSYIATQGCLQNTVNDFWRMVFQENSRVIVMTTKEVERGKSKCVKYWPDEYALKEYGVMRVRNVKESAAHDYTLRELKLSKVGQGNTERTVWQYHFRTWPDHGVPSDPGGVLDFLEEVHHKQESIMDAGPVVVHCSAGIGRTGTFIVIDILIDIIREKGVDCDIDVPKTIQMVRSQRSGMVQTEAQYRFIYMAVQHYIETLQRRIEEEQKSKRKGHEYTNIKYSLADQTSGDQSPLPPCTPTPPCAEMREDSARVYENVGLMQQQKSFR
The test is described as follows: SHP2 Phosphatase Assay: IC50 values were determined at room temperature in 384-well black polystyrene plate, using a final reaction volume of 15 μl and the following assay buffer conditions: 60 mM Hepes (pH=7.2), 75 mM NaCl, 75 mM KCl, and 1 mM EDTA, 0.05% P-20, 5 mM dithiothreitol (DTT). Full length SHP2 enzyme (diluted to 0.1 nM in reaction buffer) were co-incubated with 1 uM IRS-1 peptide and 0.01 nM to 10 μM compounds of the disclosure for 60 min. The surrogate substrate DiFMUP (5 μL, […]) was added, and incubated at rt for 60 min. The reaction was then quenched by the addition of 5 μL of a 40 μM solution of bpV(Phen). The fluorescence signal was monitored using a microplate reader (Envision, Perkin-Elmer) using excitation and emission wavelengths of 360 nm and 450 nm, respectively. The inhibitor dose-response curves were analyzed using normalized IC50 regression curve fitting with control-based normalization.

As for `CC1(CN)CCN(c2ncc(Sc3cccc(NC(=O)c4c(O)nc5cnccn5c4=O)c3Cl)[nH]c2=O)CC1`, the IC50 is less than 50 nM.

In general, IC50 refers to the point on the concentration scale where inhibition reaches its midpoint.
